Experimental data reported in paper PMC9144276, “In Vitro and In Silico Evaluation of Cholinesterase Inhibition by Alkaloids Obtained from Branches of Abuta panurensis Eichler” (Molecules, 2022).
Where two headings read alike, the source gives them in different places.

Biological target: T1, acetylcholinesterase enzyme from an electric ray Tetronarce californica (Tetronarce californica, UniProt P04058)
T1 construct: purchased Sigma-Aldrich
Assay: Acetylcholinesterase inhibition assay (Ellman method, 96-well microplates)
Assay type: biochemical
Conditions: for inhibition percentage toward the AChE enzyme: concentration not given
Procedure: An acetylcholinesterase enzyme from an electric ray Tetronarce californica (Sigma-Aldrich, St. Louis, MO, USA) was used for the experiments. The in vitro AChE inhibition assay was performed in 96-well microplates according to the methodology proposed by Ellman et al. and Senol et al. with some modifications. The alkaloid fraction and alkaloids were tested at concentrations of 2.8; 5.6; 11.2; 22.5; 45.0 and 90.0 µg/mL. Initially, 20 µL of each sample from the stock solution (1 mg/mL) were added and serial dilutions were performed. Then, 150 µL of a sodium phosphate buffer pH = 8 ([…]), 20 µL of 5,5’-dithio-bis(2- nitrobenzoic)acid (DTNB, 0.0025 M), and 20 µL of the acetylcholinesterase enzyme (1 U/mL) were added subsequently to each well at 25 °C and left for 15 min. The reaction was initiated by the addition of 10 µL of […] (AChI) (0.1 M). Neostigmine (0.28–9.0 μg/mL) was used as a positive control.
A thiocholine formed by the enzymatic hydrolysis of the AChI, reacts with the DTNB giving rise to a yellow 5-mercapto-2-nitrobenzoate anion. Concentration of the latter in each well was measured as absorbance at 405 nm by using a 96-well microplate reader ELx800^TM (Bio Tek Instruments, Inc., Winooski, VT, USA). The transformation was monitored for 30 min at 5-min intervals. The inhibition curve was plotted as the inhibition percent vs. concentration. All assays were performed in triplicate. Statistical analysis was performed with GraphPad Prism 7.0® software.

[1] = TcAChE, Ellman, 25 °C, pH 8, triplicate, read-out: IC50 for the acetylcholinesterase (AChE) inhibition assay

T1 sequence (P04058 22-586): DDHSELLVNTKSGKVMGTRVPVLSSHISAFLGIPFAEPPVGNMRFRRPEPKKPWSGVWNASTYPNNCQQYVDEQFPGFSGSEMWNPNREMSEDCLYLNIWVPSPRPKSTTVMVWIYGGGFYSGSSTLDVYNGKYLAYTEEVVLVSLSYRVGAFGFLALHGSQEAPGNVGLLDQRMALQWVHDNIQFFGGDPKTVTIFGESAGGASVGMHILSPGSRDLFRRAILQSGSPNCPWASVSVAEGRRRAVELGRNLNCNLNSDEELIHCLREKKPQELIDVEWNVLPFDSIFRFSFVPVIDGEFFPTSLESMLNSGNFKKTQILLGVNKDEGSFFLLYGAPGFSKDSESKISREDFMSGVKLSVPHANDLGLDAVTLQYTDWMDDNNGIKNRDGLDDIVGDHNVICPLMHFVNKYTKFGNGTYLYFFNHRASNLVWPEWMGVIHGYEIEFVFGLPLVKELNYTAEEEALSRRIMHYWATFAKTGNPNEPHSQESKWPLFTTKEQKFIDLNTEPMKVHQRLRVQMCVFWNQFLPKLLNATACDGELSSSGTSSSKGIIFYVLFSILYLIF

Row | Compound | IC50 [1] [µM] | inhibition percentage toward the AChE enzyme (TcAChE) | IC50 [µM]
1 | COc1cc2c(cc1O)C(Cc1ccc(O)c(Oc3cc4c(cc3OC)CCNC4Cc3ccc(O)cc3)c1)NCC2 (single isomer, unassigned) [lindoldhamine isomer 1, Lindoldhamine isomer] | 39.38 ± 0.08 | above 70% | –
2 | COc1cc2c3c(c1OC)C1(C=CC(=O)C=C1)CC3NCC2 (stereo not shown) [stepharine 2, stepharine] | 61.24 ± 0.03 | above 70% | –
3 | CN(C)C(=O)Oc1cccc([N+](C)(C)C)c1 [neostigmine, reference compound] | 3.72 ± 0.03 | above 70% | –
4 | COc1cc2c(cc1OC)-c1cc3ccc(OC)c(OC)c3c[n+]1CC2 [palmatine 3, palmatine] | 35.25 ± 0.04 | above 70% | –
5 | CN(CCCCNC(=O)/C=C/c1ccccc1)CCCNC(=O)/C=C/c1ccccc1 [5-N-methylmaytenine 4, 5-N-methylmaytenine] | – | above 70% | 19.55 ± 0.09
